Source: patent publication US20070264324A1, “Use of Vegetable Anthraquinone Derivatives and Vegetable Polysaccharides For Treating Human Immunodeficiency Virus (HIV)” (priority 2004, published 2007)

Tested on: TC740 cells
Assay type: cell-based
Settings: 72 h
Procedure: The present invention relates to using emodin and RRP to inhibit HIV in an exogenous (however endocellular) environment, in order to attest their anti-HIV effectiveness. More specifically, the invention includes: • 1. Preparing emodin and RRP solutions with various concentrations (70-98% for emodin, and 80-95% for RRP). • 2. Culturing test subjects containing 100 μL of cells using cell incubator under 37° C. and 5% CO2 for 24 hours, forming monolayer on each culture media. • 3. Testing the toxicity of the agents: apply Rheum rhaponticum extractions to the monolayer on culture medium. Maintain the culture media under 37° C. and 5% CO2 for 72 hours, and observe the monolayer for cellular viability. […] These standard concentrations of emodin range between 70% and 98%, and those of RRP range between 80% and 95%. • 4. Testing the anti-HIV effectiveness of emodin and RRP: apply a specific concentration of HIV to those culture medium containing viable cells and already applied with emodin and/or RRP. Observe the viability of cells, and compare them with those in the control groups.
3. Cytotoxicity test: apply an emodin/RRP mixture with a concentration between 1600 μg/mL and 25 μg/mL to the culture medium, and maintain the medium under […] for 72 hours before observing.

standard concentrations that do not affect the growth of cells: 70% and 98%
SMILES: Cc1cc(O)c2c(c1)C(=O)c1cc(O)cc(O)c1C2=O [emodin]
